Literature values, collected in patent US20110136741A1 (priority 2008, published 2011).

Experiments:
[1] = target: subtype sst2 receptors (Homo sapiens, UniProt P30874)
[2] = target: hsst2 (Homo sapiens, UniProt P30874)
Sequence of hsst2 (P30874 whole entry): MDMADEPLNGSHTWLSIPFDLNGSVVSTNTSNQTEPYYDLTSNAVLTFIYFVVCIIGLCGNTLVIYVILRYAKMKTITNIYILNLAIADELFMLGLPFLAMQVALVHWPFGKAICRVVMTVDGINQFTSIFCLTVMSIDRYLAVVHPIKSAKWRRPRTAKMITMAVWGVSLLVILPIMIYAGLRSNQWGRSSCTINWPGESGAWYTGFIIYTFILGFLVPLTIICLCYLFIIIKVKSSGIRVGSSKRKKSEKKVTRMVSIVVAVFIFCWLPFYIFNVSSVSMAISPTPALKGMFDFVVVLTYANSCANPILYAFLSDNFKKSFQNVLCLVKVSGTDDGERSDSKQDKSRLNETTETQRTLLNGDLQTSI

Sequence of subtype sst2 receptors (P30874 whole entry): as above

affinity for subtype sst2 receptors [1]	activity towards hsst2 receptor [2]	SMILES	half-life in blood [min]
–	–	CC(O)[C@@H]1NC(=O)[C@H](CCCCN)NC(=O)[C@H](Cc2c[nH]c3ccccc23)NC(=O)[C@H](Cc2ccccc2)NC(=O)[C@H](Cc2ccccc2)NC(=O)[C@H](CC(N)=O)NC(=O)[C@H](CCCCN)NC(=O)[C@@H](NC(=O)CNC(=O)[C@H](C)N)CSSC[C@@H](C(=O)O)NC(=O)[C@H](CO)NC(=O)[C@H]([C@@H](C)O)NC(=O)[C@H](Cc2ccccc2)NC1=O (stereo partly drawn) [somatostatin, Somatostatin-14]	< 3
very high affinity	very active	C[C@@H](O)[C@@H]1NC(=O)[C@H](CCCCN)NC(=O)[C@@H](Cc2c[nH]c3ccccc23)NC(=O)[C@H](Cc2ccccc2)NC(=O)[C@@H](NC(=O)[C@H](N)Cc2ccccc2)CSSC[C@@H](C(=O)N[C@H](CO)[C@@H](C)O)NC1=O [octreotide]	–
